Measured values from publication PMC3617406 (Molecular pharmaceutics, 2013).

What was measured:
[1] = target: T1, human NTCP (Homo sapiens, UniProt Q14973); type: cell-based; conditions: for NTCP inhibitor or non-inhibitor: inhibitor = Ki less than 300 μM; for potency estimated from few doses: read-out: Estimated Ki for NTCP
T1 sequence (Q14973 1-349): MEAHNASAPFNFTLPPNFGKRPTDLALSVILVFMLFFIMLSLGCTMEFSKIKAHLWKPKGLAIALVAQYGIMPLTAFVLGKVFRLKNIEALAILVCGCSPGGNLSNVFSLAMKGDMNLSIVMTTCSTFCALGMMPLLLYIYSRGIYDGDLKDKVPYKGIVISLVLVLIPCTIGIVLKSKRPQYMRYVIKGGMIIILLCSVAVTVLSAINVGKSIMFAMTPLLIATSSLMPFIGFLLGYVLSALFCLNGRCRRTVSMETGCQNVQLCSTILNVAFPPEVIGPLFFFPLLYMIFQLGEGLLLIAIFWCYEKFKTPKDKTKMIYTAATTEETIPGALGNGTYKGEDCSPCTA

[2] = target: T1, human NTCP; type: cell-based
[3] = target: T2, human ASBT (Homo sapiens, UniProt Q12908); type: cell-based; conditions: for potency estimated from few doses: read-out: Estimated Ki for ASBT; for taurocholate uptake into ASBT-MDCK cells, percent of control: single drug concentration, same as in NTCP screening (typically 100 μM)
T2 sequence (Q12908 1-348): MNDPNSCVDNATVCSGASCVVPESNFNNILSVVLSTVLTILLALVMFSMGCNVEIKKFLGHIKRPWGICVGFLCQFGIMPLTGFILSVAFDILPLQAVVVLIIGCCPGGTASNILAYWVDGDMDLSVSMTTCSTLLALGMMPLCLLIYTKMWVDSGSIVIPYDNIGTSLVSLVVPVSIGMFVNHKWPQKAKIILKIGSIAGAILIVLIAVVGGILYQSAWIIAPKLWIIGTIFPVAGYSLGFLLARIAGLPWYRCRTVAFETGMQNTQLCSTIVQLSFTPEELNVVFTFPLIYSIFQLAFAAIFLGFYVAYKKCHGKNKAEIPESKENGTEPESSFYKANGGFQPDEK

[4] = Cytotoxicity study; conditions: dog, ASBT-MDCK cells
[5] = target: T1, human NTCP; assay: Taurocholate uptake kinetics into NTCP-HEK293 cells; conditions: Figure S1

| NTCP inhibitor or non-inhibitor [1] | potency estimated from few doses [1] | Ki [2] | potency estimated from few doses [3] | taurocholate uptake into ASBT-MDCK cells, percent of control [3] | SMILES | viability at 10 min, 100 μM [4] | Kt (taurocholate Michaelis-Menten constant) [5] | Vmax [5] | passive permeability Pp [5] |
| --- | --- | --- | --- | --- | --- | --- | --- | --- | --- |
| inhibited NTCP | 211 ± 60 µM | 129 ± 20 µM | 121 ± 33 µM | 64.7% | CC(C)OC(=O)C(C)(C)Oc1ccc(C(=O)c2ccc(Cl)cc2)cc1 [Fenofibrate] | 79.2% |  |  |  |
| inhibited NTCP | 111 ± 7 µM | 200 ± 32 µM | 77 ± 16 µM |  | CC(C)[C@H]1CC[C@H](C(=O)N[C@H](Cc2ccccc2)C(=O)O)CC1 [Nateglinide] |  |  |  |  |
| NTCP inhibitors | 100 ± 8 µM | 126 ± 20 µM | 30.8 ± 3.6 µM | below 50% | CCc1nn(CCCN2CCN(c3cccc(Cl)c3)CC2)c(=O)n1CCOc1ccccc1 [Nefazodone] |  |  |  |  |
|  | 435 ± 114 µM | 544 ± 217 µM | 425 ± 155 µM |  | CCCN(CCC)S(=O)(=O)c1ccc(C(=O)O)cc1 [Probenecid] |  |  |  |  |
| NTCP inhibitors | 280 ± 37 µM | 209 ± 27 µM | 27.4 ± 4.6 µM | below 50% | CN1CCN(CCCN2c3ccccc3Sc3ccc(Cl)cc32)CC1 [Prochlorperazine] |  |  |  |  |
|  |  |  |  |  | C[C@H](CCC(=O)NCCS(=O)(=O)O)[C@H]1CC[C@H]2[C@@H]3[C@H](O)C[C@@H]4C[C@H](O)CC[C@]4(C)[C@H]3C[C@H](O)[C@]12C [taurocholate, Taurocholate] |  | 22.7(±3.4) μM | 1.80(±0.03) pmol/sec/cm^2 | 1.27(±0.03)x10^−6 cm/sec |

| SMILES | NTCP inhibitor or non-inhibitor [1] | potency estimated from few doses [1] | Ki [2] | potency estimated from few doses [3] | taurocholate uptake into ASBT-MDCK cells, percent of control [3] | viability at 10 min, 100 μM [4] | Kt (taurocholate Michaelis-Menten constant) [5] | Vmax [5] | passive permeability Pp [5] |
| --- | --- | --- | --- | --- | --- | --- | --- | --- | --- |
| CCCCC(=O)N(Cc1ccc(-c2ccccc2-c2nnn[nH]2)cc1)[C@H](C(=O)O)C(C)C [Valsartan] | did not inhibit NTCP | > 100 µM |  | 1260 µM |  | 77.9% |  |  |  |
